Results as given in EP0638309A1, “Substances inhibiting proteic adp ribosilation suitable to prevent the diabetes mellitus complications” (ISTITUTO BIOCHIMICO ITALIANO GIOVANNI LORENZINI S.p.A., priority 1993, dated 1995).

How the values were obtained:
[1] = tested on: 5 YSY neuroblastoma; assay: Myoinositol metabolism (accumulation and incorporation) in neuroblastoma cells cultured in glucose; type: cell-based; conditions: glucose 30 mM, substance 10⁻⁵ M; for Myoinositol Incorporation: fraction linked to the membranes
Procedure: A diabetic neuropathy in vitro model has been carried out using neuroblastoma cells cultured in chronic hyperglucosemia conditions. This condition causes the typical diabetes mellitus dismetabolic effects as the polyols (sorbitol) accumulation, the myoinositol reduction and the reduction of the Na pump functionality. […] et al. - Alan R., Liss. […] In the groups from 2) to 4) glucose (30 mM) has been added to the culture renewing the culture medium and then adding glucose every 72 hours, during a three weeks period. In the group 3), at the same time of the glucose, one of the substances inhibiting proteic ADP-ribosilation reported in the table 1 (amount 10^-5 M) has been added. In the group 4), at the same time of the glucose one of the substances non inhibiting proteic ADP-ribosilation reported in the table 1 (dermatan sulphate and tolrestat) in amount 10^-5 M has been added. On the experimental groups above described also the myoinositol metabolism alteration has been studied which has been valued by the method described by Yorek et al., in "Diabetes", pag. […]

[2] = tested on: 5 YSY neuroblastoma; assay: Neuritogenesis after retinoic acid in neuroblastoma cells cultured in chronic hyperglucosemia (in vitro diabetic neuropathy model); type: cell-based; conditions: substance 10⁻⁵ M; for Percentage of cells with neurits after retinoic acid addition: glucose 30 mM for three weeks
Procedure: A diabetic neuropathy in vitro model has been carried out using neuroblastoma cells cultured in chronic hyperglucosemia conditions. This condition causes the typical diabetes mellitus dismetabolic effects as the polyols (sorbitol) accumulation, the myoinositol reduction and the reduction of the Na pump functionality. […] A. Shahar et al. - Alan R., Liss.
In the groups from 2) to 4) glucose (30 mM) has been added to the culture renewing the culture medium and then adding glucose every 72 hours, during a three weeks period.
In the group 3), at the same time of the glucose, one of the substances inhibiting proteic ADP-ribosilation reported in the table 1 (amount 10⁻⁵ M) has been added.
In the group 4), at the same time of the glucose one of the substances non inhibiting proteic ADP-ribosilation reported in the table 1 (dermatan sulphate and tolrestat) in amount 10⁻⁵ M has been added.
Subsequently retinoic acid (5 x 10⁻⁶ M) has been added to the cultures 1) to 4) for causing the cells neuritogenesis which has been valued by the observation at the optic microscope considering as neurit the cytoplasmatic extension having a length corresponding at least to twice as the diameter of the cell.

[3] = tested on: substance P axonal transport; assay: Substance P axonal transport in ligated sciatic nerve of alloxan-diabetic rats; type: in vivo; conditions: for anterograde and retrograde accumulation of substance P, in words: 10 mg/kg daily; for substance P content, NSc: contralateral non-ligated sciatic nerve; for substance P content, NSc / substance P content, D / substance P content, P2 / substance P content, P1: ± ES; for substance P content, D: distal segment; for substance P content, P1: proximal segment contiguous to ligature
Excerpt: The effectiveness verification of the substances inhibiting proteic ADP-ribosilation in preventing the diabetes mellitus complications has been carried out in vivo on rats in diabetes mellitus models induced by alloxan. With this purpose, […] substance P axonal transport in the five following experimental groups, each consisting of N° 8 rats: • 1) control group; • 2) diabetic rats group; • 3) diabetic rats group treated with vitamin K1 (substance inhibiting the proteic ADP-ribosilation); • 4) diabetic rats group treated with arachidic acid (substance inhibiting the proteic ADP-ribosilation); • 5) diabetic rats group treated with dermatan sulphate (substance non inhibiting proteic ADP-ribosilation).
The Sprague Dawley strain rats used, 250 gr weight, male sex, were supplied by Charles River.
(§1) The diabetes has been induced in the rats of the groups from 2) to 5) by a single subcutaneous injection of 100 mg/kg of alloxan dissolved in pH 4.5 0.1 M citrate-phosphate buffer solution.
The pharmacological treatment of the groups 3) and 5) respectivelly with vitamin K1 and dermatansulphate, has been carried out by intraperitoneal administration of said substances dissolved in physiologic solution at 10 mg/kg dose. […] Groups 1) and 2) have been injected with an equivalent volume of physiologic solution.
(§2) The pharmacological treatment started 7 days after the diabetes induction and prosecuted until the sacrifice with daily administration.
To estimate the axonal transport of substance P the accumulation of the substance P in three segments of sciatic nerve two millimeters long was estimated 24 hours from the ligature of the same nerve.
The operations of the sciatic nerve ligature, of the tissues withdrawal from the same and of substance P extraction from the tissues for the radioimmunologic dosage, have been carried out by the following way.
The animals were anaesthetised by intraperitoneal administration of 35 mg/kg of pentobarbital dissolved in 0.9% physiologic solution. After wright thigh epilation and cutis section the sciatic nerve was exposed at half thigh level (at least 0.8 cm from the popliteal cavity where the nerve ramifies). The ligature has been made by sterile silk thread which has been twice knotted to about half of the exposed nerve portion.
The sacrifice has been accomplished after 8 weeks from the diabetes induction, after 24 hours from the ligature.
Immediately after the sacrifice, in the former operation seat, the removal of the whole sciatic nerve has been made and finally from this the three segments each about 2 mm long have been withdrawn: segment P1 (proximal contiguous to the ligature); segment P2 (immediately above P1) and segment D (distal contiguous to the ligature), as it is shown in fig. 1.
The withdrawn tissues have been placed in polypropylene test-tubes held in ice and containing a volume of acetic acid 1 N in 10:1 ratio with the tissue weight. Then the tissues homogenization has been done by a continuous speed variation homogenizer (Heavy Stirrer, mod. 12) and a polytetrafluoroethylene pestle perfectly adherent to the test-tube walls. After the homogenate aliquots required for the tissue proteins dosage have been withdrawn (0.1 ml) the test-tubes have been immerged in a boiling water bath for 8-10 minutes, for inactivating the peptidases eventually still present in the samples, and then left for about 30 minutes at 4 °C for completely cooling.
The […] obtained by centrifugation of the homogenate at 40.000 x g for 10 minutes, has been lyophilized and the dry residue has been reconstituted in distilled water, stirred by vortex and centrifuged at 40.000 x g for 10 minutes. From the samples so reconstituted the suitable aliquots required for the substance P radioimmunological dosage have been withdrawn. […]

[4] = Body weight and glycemia control in alloxan-diabetic rats; type: in vivo; conditions: diabetic animals 8 weeks after the diabetes induction, 10 mg/kg daily; for Glycemia: caudal vein blood before sacrifice
Procedure: The effectiveness verification of the substances inhibiting proteic ADP-ribosilation in preventing the diabetes mellitus complications has been carried out in vivo on rats in diabetes mellitus models induced by alloxan.
as §1
Groups 1) and 2) have been injected with an equivalent volume of physiologic solution.
as §2
The blood samples have been withdrawn at the caudal vein level before the animals sacrifice.

[5] = tested on: transducin; assay: In vitro ADP-ribosilation of retina membrane proteins G from treated diabetic rats (autoradiogram); type: in vivo; conditions: retina membrane fraction of diabetic rats treated at 50 mg/kg
Excerpt: A further experimentation on the silybin effect on the ADP-ribosilation of retina proteins G has been carried out. The evaluation of said proteins ribosilability has been performed by the method described by Duman et al. in J. Neurochem. (1991). pages 2124-2132.
For said experimentation the retinas withdrawn from the rats of the groups 1a), 2a) and 3a) used for the experimentation on the substance P axonal transport, were used.
The retinas have been homogenized and subdivided in cellular fractions and the membrane fraction has been selected for the ADP-ribosilation reaction in vitro.
2 which represents the autoradiogram of an electrophoretic gel obtained from said membrane cellular fraction.
Column 1P derives from the retinas of the control group rats, column 2P derives from the retinas of the diabetic rats and column 3P derives from the retinas of the diabetic rats treated with silybin at a 50 mg/kg dose.

[6] = 10 mg/kg daily (vitamin K1, dermatansulphate intraperitoneal; arachidic acid oral), 8 weeks after induction
[7] = 24 hours after ligature, 10 mg/kg daily (vitamin K1, dermatansulphate intraperitoneal; arachidic acid oral)
[8] = proximal segment above P1, 24 hours after ligature, 10 mg/kg daily (vitamin K1, dermatansulphate intraperitoneal; arachidic acid oral)
[9] = second experiment, oral 50 mg/kg/die

Compound	Myoinositol Incorporation [1]	Myoinositol Accumulation [1]	also measured
CC/C=C\C/C=C\C/C=C\CCCCCCCC(=O)O [linolenic acid (C18:3-cis-9.12.15), linolenic acid]	0.81 n mol/µg of protein	8.44 n mol/µg of protein	
vitamin K2 [Vit K2]	0.88 n mol/µg of protein	8.99 n mol/µg of protein	Percentage of cells with neurits after retinoic acid addition ([2]; 3 days in retinoic acid): 45%; Percentage of cells with neurits after retinoic acid addition ([2]; 7 days in retinoic acid): 65%; Percentage of cells with neurits after retinoic acid addition ([2]; 12 days in retinoic acid): 98%
O=C1NC(=O)c2cccc3cccc1c23 [1.8 Naphthalimide, 1.8-naphthalimide]	0.91 n mol/µg of protein	9.20 n mol/µg of protein	
CO[C@@H]1[C@@H](OC(N)=O)[C@@H](O)[C@H](Oc2ccc3c(O)c(NC(=O)c4ccc(O)c(CC=C(C)C)c4)c(=O)oc3c2C)OC1(C)C [novobiocin]	0.60 n mol/µg of protein	6.0 n mol/µg of protein	
CCCCCCCCCCCCCCCCCC(=O)O [stearic acid]	0.95 n mol/µg of protein	9.89 n mol/µg of protein	
O=c1cc(-c2ccccc2)oc2ccccc12 [flavone]	0.67 n mol/µg of protein	6.54 n mol/µg of protein	
CCCCCCCCCCCCCCCCCCCC(=O)O [arachidic acid]	0.92 n mol/µg of protein	9.02 n mol/µg of protein	anterograde and retrograde accumulation of substance P, in words [3]: normalized; substance P content, NSc [3, 6]: 1.24±0.006 ng/mg of tissular protein; substance P content, D [3, 7]: 1.80±0.06 ng/mg of tissular protein; substance P content, P2 [3, 8]: 1.40±0.05 ng/mg of tissular protein; substance P content, P1 [3, 7]: 9.44±0.14 ng/mg of tissular protein; Body weight [4]: 239±12.6 gr.; Glycemia [4]: 471 ± 9.4 mg/dL
COc1ccc2c(C(=S)N(C)CC(=O)O)cccc2c1C(F)(F)F [tolrestat]			prevention of the diabetic neuropathy (neuritogenesis), in words ([2]; glucose 30 mM): does not exercise any effect for preventing the diabetic neuropathy
Nc1ccc2c3c(cccc13)C(=O)NC2=O [4-amino-1.8-naphthalimide]	0.78 n mol/µg of protein	8.01 n mol/µg of protein	
CC1=CC(=O)c2ccccc2C1=O [Vit K3, vitamin K3]	0.85 n mol/µg of protein	8.56 n mol/µg of protein	
CCCCC/C=C\C/C=C\CCCCCCCC(=O)O [linoleic acid (C18:2-cis-9.12), linoleic acid]	0.88 n mol/µg of protein	8.66 n mol/µg of protein	
COc1cc(C2Oc3cc([C@H]4Oc5cc(O)cc(O)c5C(=O)[C@@H]4O)ccc3OC2CO)ccc1O (stereo partly drawn) [silybin]			substance P content, NSc [3, 9]: 2.26±0.040 ng/mg of tissular protein; substance P content, D [3, 9]: 4.05±0.071 ng/mg of tissular protein; substance P content, P2 ([3]; second experiment, proximal segment above P1, oral 50 mg/kg/die): 7.07±0.59 ng/mg of tissular protein; substance P content, P1 [3, 9]: 11.42±0.18 ng/mg of tissular protein; transducin ribosilability, in words [5]: maintained
CCCCCCCCCCCCCCCC(=O)O [palmitic acid]	0.89 n mol/µg of protein	9.39 n mol/µg of protein	
CCCCCCCCCCCCCC(=O)O [myristic acid]	0.85 n mol/µg of protein	8.91 n mol/µg of protein	
CC(=CCC1=C(C)C(=O)c2ccccc2C1=O)CCCC(C)CCCC(C)CCCC(C)C (stereo not drawn) [Vit K1, vitamin K1]	0.98 n mol/µg of protein	9.66 n mol/µg of protein	anterograde and retrograde accumulation of substance P, in words [3]: normalized; substance P content, NSc [3, 6]: 1.28±0.008 ng/mg of tissular protein; substance P content, D [3, 7]: 1.96±0.08 ng/mg of tissular protein; substance P content, P2 [3, 8]: 2.44±0.09 ng/mg of tissular protein; substance P content, P1 [3, 7]: 8.72±0.16 ng/mg of tissular protein; Body weight [4]: 244±12.6 gr.; Glycemia [4]: 438 ± 6.4 mg/dL
O=c1[nH]c2ccc([N+](=O)[O-])cc2c2ccccc12 [2-nitro-(6(5H)-phenanthridinone, 2-nitro-6(5H)-phenanthridinone]	0.81 n mol/µg of protein	8.51 n mol/µg of protein	
